According to patent publication US20090179638A1, “ASSAY FOR IDENTIFYING INHIBITORS OF NEURONAL APOPTOTIC PATHWAYS” (AEGERA THERAPEUTICS INC., priority 2006, published 2009):

Tests used:
[1] = test system: HSP90 protein; assay: STD 1H NMR spectroscopy binding to HSP90; settings: compound to protein ratio approximately 100:1, 20 mM sodium phosphate buffer pH 6.7
Method: (§1) FIG. 9 is a STD 1H NMR Spectrum of Compound 1 and 20 with HSP90 protein. STD NMR experiments were performed at 19° C. on a Varian INNOVA 500 MHz spectrometer equipped with a triple resonance HCN cold probe. A 1D saturation transfer difference pulse sequence with internal subtraction via phase cycling was employed. Residual HDO signal was removed using a W5 WATERGATE pulse sequence, with a […] interpulse delay. On resonance irradiation of the protein was performed at −0.5 ppm, with off-resonance irradiation at 34 ppm. The irradiation power was (g/2p)B1=93 Hz applied through a train of 50 ms eburp1 pulses with a 1 ms delay between the pulses. The total presaturation time was 5.1 s. The relaxation delay was set to 0.1 s. A 30 ms spin-lock pulse with a strength of (g/2p)B1=4600 Hz was used to eliminate background protein signals. The total number of scans was between 1536, with a sweep width of 16 ppm. Spectra were multiplied by a 1 Hz exponential line-broadening function prior to Fourier transform. Compounds 1 (85 uM) and 20 (85 uM) and HSP90 protein (0.85 uM) in 20 mM sodium phosphate buffer (pH 6.7) was used. A) STD 1H NMR spectrum, B) preset reference, and C) STD reference-no saturation/difference.
as §1, with “STD” for “FIG. 9 is a STD 1H NMR Spectrum of Compound 1 and 20 with HSP90 protein. STD”, “employed (Mayer and Meyer, JACS, 2001, 123, 6108-6117).” for “employed.”, “delay (Liu et. al, J. Magn. Res., 1998, 132, 125).” for “delay.”, “1536-2048,” for “1536,”, “transform.” for “transform. Compounds 1 (85 uM) and 20 (85 uM) and HSP90 protein (0.85 uM) in 20 mM sodium phosphate buffer (pH 6.7) was used. A) STD 1H NMR spectrum, B) preset reference, and C) STD reference-no saturation/difference.”
The compound to protein ratio was fixed at approximately 100:1 in 20 mM sodium phosphate buffer (pH 6.7). Compound 20 was used as a reference compound to compare binding affinities of various compounds to HSP90 by comparing the relative intensity of NOE effects in the spectra of compounds 1 and 20 (see FIG. 9), compounds 2 and 20, compounds 5 and 20, compounds 13 and 20, and compounds 15 and 20 (near equamolar quantities of each) in the presence of HSP90 protein. Using the NOE signals for the imidazole proton, and comparing peak heights, the relative kd of the compound pairs were compared (see Meyer and Peters, T. Angew. Chem. Int. Ed. 2003, 42, 864). The kds of the compound pairs ranged from 1:1 to 8:1. These differences in binding affinities correlated to the potency of each respective compound's ability to rescue SCG neurons from NGF withdrawal as previously reported.

[2] = test system: HSP70; assay: HSP protein expression in PC12 / PC12rtTA cells (immunoblot); type: cell-based; settings: for HSP70 production: PC12rtTA cells infected with AdNRG, Adp75 or AdLacZ, 30 hours (FIG. 6A)
Method: FIGS. 4A-4C are photographs of Western blots which illustrate that compound 1 treatment of PC12 cells induces expression of HSP70. A: PC12 cells were infected with 5 MOI of AdNRG (NRG) or AdLacZ (LacZ) as indicated. Cells were left untreated (0) or treated with 40 μM compound 1 at time of infection (30), one hour before lysis (1), or at both times (30+1). Cells were lysed thirty hours after infection, normalized for protein content, and analyzed for levels of phospho-Ser^63 c-Jun and total c-Jun, total JNK, IkBα, and NRAGE by immunoblotting. Lysates from untreated cells are indicated by ‘−’. B: PC12 cells were treated with the indicated concentrations of compound 1 for 18 hours and then lysed, normalized for protein content, and analyzed for levels of HSP70 by immunoblotting. Lysates from untreated cells are indicated by ‘−’. C: RNA isolated from PC12^rtTA cells treated with increasing concentrations of compound 1 for 18 hours was analyzed by rtPCR using primers specific to HSP70, HSP25, HSP90 or actin, as indicated. Experiments in Panel A and B were performed three times and that in Panel C was performed twice, with essentially identical results. D: PC12^rtTA cells were infected with AdNRG at 5 MOI, Adp75 at 50 MOI, or the control virus AdLacZ at 50 MOI. At time of infection, the cells were treated with increasing concentrations of compound 1, or with vehicle alone, as indicated. Thirty hours after infection, cells were lysed, normalized for protein content, and analyzed for levels of c-Jun phosphorylation, HSP70, HSP25, HSP40, NRAGE, p75NTR, JNK-1 and IkBα, as indicated.
FIGS. 6A, 6B and 6C are graphs and photographs of Western blots which illustrate that compound 1 analogues inhibit JNK activation and induce expression of HSP70. A: PC12^rtTA cells were infected with 5 MOI of AdNRG, 50 MOI of Adp75 or 50 MOI of the control virus AdLacZ. At time of infection, the cells were treated with an increasing concentrations of compound 1, or its analogues, compound 2, compound 3, compound 4, or with vehicle alone, as indicated. Thirty hours after infection, cells were lysed, normalized for protein levels, and analyzed for levels of HSP70, HSP25 and JNK-1, as indicated. B: PC12^rtTA cells were treated as above and after 40 hours infection were assayed for death using the lactate dehydrogenase (LDH) assay. Results are normalized relative to those obtained with 1% Triton, and represent the mean±standard deviation of a representative experiment performed in triplicate (*=P<0.025 relative to ‘0’ for each compound concentration). C: PC12^rtTA cells were infected with 50 MOI of LacZ or 5 MOI of AdNRG50 and at the time of infection, were treated with 40 μM compound 1, or its analogues, compound 2, compound 3, compound 4, or with vehicle alone, as indicated. Thirty hours after infection, cells were lysed, normalized for protein levels, and were analyzed for phosphorylated c-Jun, total c-Jun, NRAGE and JNK-1, as indicated. Experiments in Panel A and C were performed twice and that in B were performed twice, with essentially identical results.
To address this, SCG neurons were treated with compound 1 for 18 hours then lysed and assessed for HSP70 levels by immunoblot. Uninfected PC12rtTA cells were treated in a similar manner. […] To test if the accumulation of HSP70 induced by compound 1 reflected increased steady state levels of its mRNA, RNA was isolated from PC12 cells treated with increasing concentrations of compound 1 for 18 hours and the cell lysates subjected to semi-quantitative rtPCR. […] HSP protein levels were also assessed in PC12rtTA cells infected with AdLacZ, Adp75, or AdNRG, and at the same time, exposed to compound 1.

[3] = cells infected with LacZ or Adp75, increasing concentrations

| SMILES | binding to HSP90 protein by STD 1H NMR [1] | HSP70 production [2] | HSP70 levels versus AdNRG alone ([2]; cells infected with AdNRG) | HSP40 protein level [2, 3] | HSP70 and HSP25 protein levels [2, 3] | cellular HSP70 levels ([2]; uninfected PC12rtTA cells, 18 hours) |
| --- | --- | --- | --- | --- | --- | --- |
| NS(=O)(=O)c1nn2cc(-c3ccccc3)nc2s1 [Compound 1] | directly bind | induced HSP70 production | substantially higher | not HSP40 | robust increase | large increase |
| NS(=O)(=O)c1nn2cc(-c3ccc(N4CCOCC4)cc3)nc2s1 [Compound 2] | directly bind | robustly induced HSP70 production | – | – | – | – |
